Ki data for three molecules are collected here from ChEMBL document CHEMBL1122374 (J Med Chem, 1983).

Test [1] deals with T1, Adenosine deaminase (Bos taurus, UniProt P56658).
T1 sequence (P56658 whole entry): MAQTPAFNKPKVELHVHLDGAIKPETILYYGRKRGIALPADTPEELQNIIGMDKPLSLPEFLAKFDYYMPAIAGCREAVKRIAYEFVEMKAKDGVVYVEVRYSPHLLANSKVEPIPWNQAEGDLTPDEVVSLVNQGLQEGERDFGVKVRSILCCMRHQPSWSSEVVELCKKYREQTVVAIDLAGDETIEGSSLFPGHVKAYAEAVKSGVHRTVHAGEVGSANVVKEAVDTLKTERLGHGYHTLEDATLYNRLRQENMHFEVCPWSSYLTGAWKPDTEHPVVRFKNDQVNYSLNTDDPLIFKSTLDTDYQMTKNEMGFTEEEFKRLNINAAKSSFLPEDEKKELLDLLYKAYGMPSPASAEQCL
The experiment in a line: In vitro inhibition of adenosine deaminase in calf intestinal mucosa. It counts as tissue-based.

In test [2] the target is T2, Adenosine deaminase (Homo sapiens, UniProt P00813).
T2 sequence (P00813 whole entry): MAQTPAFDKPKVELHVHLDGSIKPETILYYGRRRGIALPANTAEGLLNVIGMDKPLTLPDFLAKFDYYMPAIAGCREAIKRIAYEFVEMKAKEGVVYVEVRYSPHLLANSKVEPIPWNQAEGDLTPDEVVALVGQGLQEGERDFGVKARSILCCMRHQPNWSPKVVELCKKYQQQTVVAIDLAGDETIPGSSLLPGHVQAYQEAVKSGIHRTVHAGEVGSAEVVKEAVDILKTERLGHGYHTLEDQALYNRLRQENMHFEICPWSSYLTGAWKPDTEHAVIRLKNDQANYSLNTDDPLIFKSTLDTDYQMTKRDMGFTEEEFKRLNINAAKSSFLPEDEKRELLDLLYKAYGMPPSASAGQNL
Put plainly: The compound was tested in vitro for inhibition of human erythrocytic adenosine deaminase.

Usually Ki stands for the equilibrium dissociation constant of an inhibitor or competing ligand from its target. A high value points to weaker binding.

Structures are written as SMILES.

In turn, `CC1=NC[C@@H](O)c2ncn([C@H]3C[C@H](O)[C@@H](CO)O3)c2N1` returned a Ki at Adenosine deaminase [1] of 16 nM. That is a double-digit nanomolar value. In the case of `OCCOCn1cnc2c1NC=NCC2O` (stereo not drawn), the affinity at Adenosine deaminase [1] corresponds to a Ki of 98 nM.

For the molecule `OC[C@H]1O[C@@H](n2cnc3c2N=CNC[C@H]3O)[C@H](O)[C@@H]1O` [COFORMYCIN], affinity at Adenosine deaminase [2] was put at a Ki of 0.01 nM. That is a picomolar value.
